molecular target: T1, ERRα (Homo sapiens, UniProt P11474); experiment: ERRα degradation in MCF-7 cells; type: cell-based; set-up: endogenous in cells; host or cells: MCF-7 (ATCC); details: MCF7, column A, read-out: ERRα Degradation Dmax (Estimated) MCF-7 cells
T1 sequence (P11474 1-423): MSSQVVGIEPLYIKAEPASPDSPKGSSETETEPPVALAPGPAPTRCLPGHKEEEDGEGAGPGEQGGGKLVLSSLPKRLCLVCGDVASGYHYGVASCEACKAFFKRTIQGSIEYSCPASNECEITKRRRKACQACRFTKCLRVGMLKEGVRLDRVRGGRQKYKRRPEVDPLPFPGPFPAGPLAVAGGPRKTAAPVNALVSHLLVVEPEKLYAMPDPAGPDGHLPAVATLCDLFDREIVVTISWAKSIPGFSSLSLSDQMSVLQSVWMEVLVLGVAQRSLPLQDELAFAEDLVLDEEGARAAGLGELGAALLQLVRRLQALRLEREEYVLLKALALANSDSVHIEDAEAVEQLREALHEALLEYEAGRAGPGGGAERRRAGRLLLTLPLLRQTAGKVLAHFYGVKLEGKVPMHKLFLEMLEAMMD
Procedure: Human MDA-MB-231 and MCF7 cells (purchased authenticated ATCC cell lines) were cultured in complete growth medium (Dulbecco's modified Eagle's medium (DMEM)/F12 supplemented with 10% FBS; Life Technologies) and grown at 37° C. with 5% CO2. THP-1 cells (ATCC) were cultured in RPMI 1640+10% FBS and were grown at 37° C. with 5% CO2. For cellular degradation of ERRα, MCF7 cells were seeded in a 24-well plate at 70% confluency, allowed to attach overnight, and incubated with the indicated compounds. For cellular degradation of RIPK2, 5×10^6 cells were incubated with the indicated compounds. When indicated, a 1-hour pretreatment with 1 μM epoxomicin was performed before the addition of compound. When indicated for washout studies, after PROTAC treatment, cells were washed repeatedly with PBS and incubated with complete medium for the indicated time before harvesting. The THP1 cell line has been authenticated using the Promega GenePrint10 kit to generate a STR Profile for comparison to the expected profile reported by ATCC. Cells were also routinely tested and negative for mycoplasma. Cell lines were routinely tested for mycoplasma contamination at Clongen (Gaithersburg, Md.).
Total protein concentrations of tissue homogenates and cell lysates were determined by Pierce BCA kit (Thermo Fisher). Homogenates or lysates were separated on 4-12% NuPAGE gels (Life Technologies) and transferred onto PVDF membranes (iBlot; Life Technologies). Membranes were blocked with 5% non-fat milk in TBST (0.1% Tween-20 in Tris-Buffered Saline) before overnight incubation with indicated antibodies. After incubation with the appropriate horseradish peroxidase-conjugated secondary antibodies, the bands were visualized by enhanced chemiluminescence (Pierce West Femto ECL). The intensity of the bands was quantified with Bio-Rad Quantity One software. When the IRDye secondary antibodies were used, the infrared signal was detected using an Odyssey scanner (Li-COR Biosciences) and the densitometry was performed using the Odyssey 2.1 Analyser software. The IRDye secondary antibodies anti-mouse (926-32212) and anti-mouse (926-68072) were purchased from Li-COR Biosciences and used at a 1:5,000 dilution. Statistical analysis of tissue densitometry levels were performed with GraphPad Prism software using the indicated statistical test.
(§1) Using the methods as described herein, the following exemplary PROTAC compounds were prepared (see Table below). The exemplary compounds were also assayed for their ability to effectuate the degration of ERRα in either MCF-7 cells or ST-486 cells. Thus, in certain embodiments, the description provides the compounds below, including compositions comprising effective amount of a compound as listed below or a derivative, analog, or a prodrug of the same, in combination with at least one of a pharmaceutically acceptable carrier, another active agent, including a second PROTAC molecule as described herein or a combination thereof. In additional embodiments, the disclosure provides a method of treating a disease or condition in a subject in need thereof, comprising administering a composition comprising an effective amount of a compound listed below, wherein the composition is effective for treating or ameliorating a symptom of the disease or condition.
(§2) Legend for following table: A=ERRα Degradation Dmax (Estimated) MCF-7 cells; B=ERRα Degradation DC50 (Estimated) MCF-7 cells; C=ERRα Degradation Dmax (Estimated) ST-486 cells; D=ERRα Degradation DC50 (Estimated) ST-486 cells

| Structure (SMILES) | Dmax [%] |
| --- | --- |
| COc1cc(/C=C2\SC(=O)N(CCOCCC(=O)N[C@H](C(=O)N3CC(O)C[C@H]3C(=O)NCc3ccc(-c4scnc4C)cc3)C(C)(C)C)C2=O)ccc1Oc1ccc(C#N)cc1C(F)(F)F (stereo partly drawn) [ARV N000020] | 98 |
| COc1cc(/C=C2\SC(=O)N(CCOCCOCCOCCOc3cc(-c4scnc4C)ccc3CNC(=O)[C@@H]3C[C@@H](O)CN3C(=O)[C@H](C(C)C)N3Cc4ccccc4C3=O)C2=O)ccc1Oc1ccc(C#N)cc1C(F)(F)F [ARV N000198] | 90 |
| COc1cc(/C=C2\SC(=O)N(CCOCCOCCCOCCOCCOc3cc(-c4scnc4C)ccc3CNC(=O)[C@@H]3C[C@@H](O)CN3C(=O)[C@H](C(C)C)N3Cc4ccccc4C3=O)C2=O)ccc1Oc1ccc(C#N)cc1C(F)(F)F [ARV N000199] | 90 |
| COc1cc(/C=C2\SC(=O)N(CCOCCOCCCCOCCCCOCCOCC(=O)N[C@H](C(=O)N3C[C@H](O)C[C@H]3C(=O)NCc3ccc(-c4scnc4C)cc3)C(C)(C)C)C2=O)ccc1Oc1ccc(C#N)cc1C(F)(F)F [ARV N000200] | 80 |
| COc1cc(/C=C2\SC(=O)N(CCOCCOCCCCCOCCCCCOCCOCC(=O)N[C@H](C(=O)N3C[C@H](O)C[C@H]3C(=O)NCc3ccc(-c4scnc4C)cc3)C(C)(C)C)C2=O)ccc1Oc1ccc(C#N)cc1C(F)(F)F [ARV N000201] | 90 |
| COc1cc(/C=C2\SC(=O)N(CCOCCC(=O)N[C@H](C(=O)N3C[C@@H](O)C[C@H]3C(=O)NCc3ccc(-c4scnc4C)cc3)C(C)(C)C)C2=O)ccc1Oc1ccc(C#N)cc1C(F)(F)F [ARV N000203] | 40 |
| COc1cc(/C=C2\SC(=O)N(CCOCCOCCOCCOCCOc3cc(-c4scnc4C)ccc3CNC(=O)[C@@H]3C[C@@H](O)CN3C(=O)[C@H](C(C)C)N3Cc4ccccc4C3=O)C2=O)ccc1Oc1ccc(C#N)cc1C(F)(F)F [ARV N000219] | 98 |
| COc1cc(/C=C2\SC(=O)N(CCOCCOCCOCCOCCOCCOc3cc(-c4scnc4C)ccc3CNC(=O)[C@@H]3C[C@@H](O)CN3C(=O)[C@H](C(C)C)N3Cc4ccccc4C3=O)C2=O)ccc1Oc1ccc(C#N)cc1C(F)(F)F [ARV N000220] | 85 |
| COc1cc(/C=C2\SC(=O)N(CCOCCCOCCCOc3cc(-c4scnc4C)ccc3CNC(=O)[C@@H]3C[C@@H](O)CN3C(=O)[C@H](C(C)C)N3Cc4ccccc4C3=O)C2=O)ccc1Oc1ccc(C#N)cc1C(F)(F)F [ARV N000222] | 90 |
| COc1cc(/C=C2\SC(=O)N(CCOCCOCCOCCOCCOCC(=O)N[C@H](C(=O)N3C[C@H](O)C[C@H]3C(=O)NCc3ccc(-c4scnc4C)cc3)C(C)(C)C)C2=O)ccc1Oc1ccc(C#N)cc1C(F)(F)F [ARV N000223] | 80 |
| COc1cc(/C=C2\SC(=O)N(CCCCCOCCOCCC(=O)N[C@H](C(=O)N3CC(O)C[C@H]3C(=O)NCc3ccc(-c4scnc4C)cc3)C(C)(C)C)C2=O)ccc1Oc1ccc(C#N)cc1C(F)(F)F (stereo partly drawn) [ARV N000224] | 90 |
| COc1cc(/C=C2\SC(=O)N(CCOCCOCCCCCOCCOCCOc3cc(-c4scnc4C)ccc3CNC(=O)[C@@H]3C[C@@H](O)CN3C(=O)[C@H](C(C)C)N3Cc4ccccc4C3=O)C2=O)ccc1Oc1ccc(C#N)cc1C(F)(F)F [ARV N000231] | 98 |
| COc1cc(/C=C2\SC(=O)N(CCOCCOCCCCCOCCCCCOCCOCCOc3cc(-c4scnc4C)ccc3CNC(=O)[C@@H]3C[C@@H](O)CN3C(=O)[C@H](C(C)C)N3Cc4ccccc4C3=O)C2=O)ccc1Oc1ccc(C#N)cc1C(F)(F)F [ARV N000232] | 60 |
| COc1cc(/C=C2\SC(=O)N(CCCCOCCCCOCCCCOc3cc(-c4scnc4C)ccc3CNC(=O)[C@@H]3C[C@@H](O)CN3C(=O)[C@H](C(C)C)N3Cc4ccccc4C3=O)C2=O)ccc1Oc1ccc(C#N)cc1C(F)(F)F [ARV N000233] | 60 |
| COc1cc(/C=C2\SC(=O)N(CCOCCOCCOCCOCCOCCOCC(=O)N[C@H](C(=O)N3C[C@H](O)C[C@H]3C(=O)NCc3ccc(-c4scnc4C)cc3)C(C)(C)C)C2=O)ccc1Oc1ccc(C#N)cc1C(F)(F)F [ARV N000234] | 98 |
| COc1cc(/C=C2\SC(=O)N(CCOCCOCCCOCCOCCOCC(=O)N[C@H](C(=O)N3C[C@H](O)C[C@H]3C(=O)NCc3ccc(-c4scnc4C)cc3)C(C)(C)C)C2=O)ccc1Oc1ccc(C#N)cc1C(F)(F)F [ARV N000235] | 95 |

molecular target: T1, ERRα; experiment: ERRα degradation in ST-486 cells; type: cell-based; set-up: degration of ERRα in either MCF-7 cells or ST-486 cells; endogenous in cells; host or cells: ST-486; details: ST486, column C, read-out: ERRα Degradation Dmax (Estimated) ST-486 cells
Procedure: as §1, §2

| Structure (SMILES) | Dmax [%] |
| --- | --- |
| COc1cc(/C=C2\SC(=O)N(CCCCOCCOCCOCC(=O)N[C@H](C(=O)N3C[C@H](O)C[C@H]3C(=O)NCc3ccc(-c4scnc4C)cc3)C(C)(C)C)C2=O)ccc1Oc1ccc(C#N)cc1C(F)(F)F [ARV N000236] | 90 |
| COc1cc(/C=C2\SC(=O)N(CCOCCOCCCCOCCOCCOCC(=O)N[C@H](C(=O)N3C[C@H](O)C[C@H]3C(=O)NCc3ccc(-c4scnc4C)cc3)C(C)(C)C)C2=O)ccc1Oc1ccc(C#N)cc1C(F)(F)F [ARV N000244] | 80 |
| COc1cc(/C=C2\SC(=O)N(CCCCOCCCCOCCCCCCC(=O)N[C@H](C(=O)N3C[C@H](O)C[C@H]3C(=O)NCc3ccc(-c4scnc4C)cc3)C(C)(C)C)C2=O)ccc1Oc1ccc(C#N)cc1C(F)(F)F [ARV N000245] | 40 |
| COc1cc(/C=C2\SC(=O)N(CCCCOCCCCOCCCCCC(=O)N[C@H](C(=O)N3C[C@H](O)C[C@H]3C(=O)NCc3ccc(-c4scnc4C)cc3)C(C)(C)C)C2=O)ccc1Oc1ccc(C#N)cc1C(F)(F)F [ARV N000246] | 90 |
| COc1cc(/C=C2\SC(=O)N(CCOCCOCCCCOCCOCCOc3cc(-c4scnc4C)ccc3CNC(=O)[C@@H]3C[C@@H](O)CN3C(=O)[C@H](C(C)C)N3Cc4ccccc4C3=O)C2=O)ccc1Oc1ccc(C#N)cc1C(F)(F)F [ARV N000265] | 80 |
| COc1cc(/C=C2\SC(=O)N(CCOCCOCCCCOCCCCOCCOCCOc3cc(-c4scnc4C)ccc3CNC(=O)[C@@H]3C[C@@H](O)CN3C(=O)[C@H](C(C)C)N3Cc4ccccc4C3=O)C2=O)ccc1Oc1ccc(C#N)cc1C(F)(F)F [ARV N000266] | 50 |
| COc1cc(/C=C2\SC(=O)N(CCOCCOCCCCCOCCOCCOCC(=O)N[C@H](C(=O)N3C[C@H](O)C[C@H]3C(=O)NCc3ccc(-c4scnc4C)cc3)C(C)(C)C)C2=O)ccc1Oc1ccc(C#N)cc1C(F)(F)F [ARV N000267] | 80 |
| COc1cc(/C=C2\SC(=O)N(Cc3ccccc3CC(=O)N[C@H](C(=O)N3C[C@H](O)C[C@H]3C(=O)NCc3ccc(-c4scnc4C)cc3)C(C)(C)C)C2=O)ccc1Oc1ccc(C#N)cc1C(F)(F)F [ARV N000381] | 98 |
| COc1cc(/C=C2\SC(=O)N(Cc3cccc(CC(=O)N[C@H](C(=O)N4C[C@H](O)C[C@H]4C(=O)NCc4ccc(-c5scnc5C)cc4)C(C)(C)C)c3)C2=O)ccc1Oc1ccc(C#N)cc1C(F)(F)F [ARV N000382] | 98 |
| COc1cc(/C=C2\SC(=O)N(CCOCCOCCOCC(=O)N[C@H](C(=O)N3C[C@H](O)C[C@H]3C(=O)NCc3ccc(-c4scnc4C)cc3)C(C)(C)C)C2=O)ccc1Oc1ccccc1C(F)(F)F [ARV N000383] | 98 |
| COc1cc(/C=C2\SC(=O)N(Cc3ccc(CC(=O)N[C@H](C(=O)N4C[C@H](O)C[C@H]4C(=O)NCc4ccc(-c5scnc5C)cc4)C(C)(C)C)cc3)C2=O)ccc1Oc1ccc(C#N)cc1C(F)(F)F [ARV N000413] | 98 |

From patent US10071164B2, “Estrogen-related receptor alpha based protac compounds and associated methods of use” (Yale University, priority 2014, dated 2018)
